The record followed here is patent publication US20060251654A1, “Method for treatment of malignant and infectious chronic diseases” (Centro de Inmunologia Molecular, priority 2001, published 2006).

This assay has as its system syngeneic tumor 3LL-D122. Nature of the assay: Survival of mice bearing 3LL-D122 tumor after surgery of the primary tumor (Examples 5 and 6). It counts as in vivo, C57BL/6 mice. Particulars: EGF-p64 vaccine i.m., two weeks later Cyclophosphamide 50 mg/kg i.v., three days later second vaccine dose; versus vaccine plus saline or Cyclophosphamide only. The protocol:
C57BL/6 mice were injected with the syngeneic tumor 3LL-D122 (200,000 cells/animal) in the right plantar pad. The evolution of the tumor was evaluated by measurement of its diameters every 3 days and surgery of the primary tumor was practiced (amputation) when it reached 8-9 mm of diameter. Mice survival, which is depended of spontaneous lung metastases was measured.
Two days after the inoculation of the tumor mice were injected by intramuscular route with a vaccine that contains 4 μg of human EGF conjugated to the p64 protein (EGF-p64) in Montanide ISA 51 (100 μl final volume) and two weeks later they were treated with 50 mg/kg of Cyclophosphamide by intravenous route or with saline solution. After three days, the mice were re-immunized by intramuscular route with a second dose of the EGF-p64 vaccine.
An animal group just was treated by intravenous route with 50 mg/kg of Cyclophosphamide and another one was not treated.
C57BL/6 mice were injected with the syngenic tumor 3LL-D122 as it is described in Example 5.
Two days after to the inoculation of the tumor, mice were injected by intramuscular route with a vaccine that contains 4 μg of human EGF conjugated to the P64 protein (EGF-p64) in Montanide ISA 51 (100 μl final volume) and two weeks later they were treated with 1 mg of anti-CD25 monoclonal antibody by intravenous route or with saline solution as control. […]

With `O=P1(N(CCCl)CCCl)NCCCO1` (stereo not shown) [Cyclophosphamide], the mice survival result is “increases the mice survival”.
